For one experiment, the target named is SAP2 (Candida albicans, UniProt P0DJ06). The experiment is classed as biochemical. Particulars: 10 μm compound; relative to pepstatin; pH 3.2, 30 min at 37° C. The procedure:
Spectrophotometric method: protease activity of the various compounds of formula (I) was measured by a spectrophotometric assay with respect to pepstatin activity at the same concentration: each assay contained 50 μl of sample in 0.4 ml of 1% (w/v) BSA in 50 mM sodium citrate pH 3.2 and 50 μl of protease solution (1 μg/ml) After 30 min at 37° C. 1 ml 10% (w/v) trichloroacetic acid was added. The tubes were stored in ice for 30 min, and then centrifuged (3000 g) for 10 min. The absorbance of the supernatant was read at 280 nm. Control: 1% BSA in citrate buffer. One unit of the enzyme catalysed a ΔA280 of 1 min^−1. With the pure protease the assay was proportional to enzyme concentration over the range ΔA280 0.1-0.4 and a limit detection of 1 μg (De Bernardis F., Sullivan P. A., Cassone A. Medical Mycology 2001, 39, 303).

For a further experiment, the system named is C. albicans AIDS68. The experiment is described as follows: Experimental rat vaginal infection, C. albicans AIDS68 (pharmacoresistant) clearance. It is filed as in vivo, Candida albicans. As to conditions: for Candida AIDS68 cells in vaginal fluid (CFU/ml): oophorectomized Wistar rats, intravaginal treatment 1, 24, 48 hrs after challenge. The procedure: (§1) Experimental vaginal infection: for the experimental vaginal infection, a previously described rat vaginal model was adopted (De Bernardis, F.; Boccanera, M.; Adriani, D.; Spreghini, E.; Santoni, G.; Cassone, A. Infect. Immun., 1997, 65, 3399).
(§2) In brief, oophorectomized female Wistar rats (80-100 g; Charles River Calco, Italy) were injected subcutaneously with 0.5 mg of estradiol benzoate (Estradiolo, Amsa Farmaceutici srl, Rome, Italy). Six days after the first estradiol the animals were inoculated intravaginally with […] yeast cells in 0.1 ml of saline solution of each C. albicans strain tested. The inoculum was dispensed into the vaginal cavity through a syringe equipped with a multipurpose calibrated tip (Combitip; PBI, Milan, Italy). The yeast cells had been previously grown in YPD broth (yeast extract 1%; peptone 2%; dextrose 2%) at 28° C. on a gyrator shaker (200 rpm), harvested by centrifugation (1500 g), washed, counted in a hemocytometer, and suspended to the required number in saline solution. The number of cells in the vaginal fluid was counted by culturing 100 μl samples (using a calibrated plastic loop, Disponoic, PBI, Milan, Italy) taken from each animals, on Sabouraud agar containing chloramphenicol (50 μg/ml) as previously described. The rat was considered infected when at least 1 CFU was present in the vaginal lavage, i.e. a count of […].
(§3) Positive (pepstatin 10 μg; fluconazole 10 μg and negative (sterile saline solution) were similarly administered.

A further experiment has as its system C. albicans SA40. As to the kind of experiment: Experimental rat vaginal infection, C. albicans SA40 clearance. The experiment is classed as in vivo, Candida albicans. Particulars: for Candida SA40 cells in vaginal fluid (CFU/ml): oophorectomized Wistar rats, intravaginal treatment 1, 24, 48 hrs after challenge. The procedure:
as §1, §2, §3

Square brackets hold non-standard residues; d marks the D form. Peptide text beside a SMILES is read from it. * marks the point of attachment. Sta = CC(C)C[C@H](N)[C@@H](O)CC(=O)O; Isovaleryl = CC(C)CC(=O)*

Sequence of SAP2 (P0DJ06 57-398): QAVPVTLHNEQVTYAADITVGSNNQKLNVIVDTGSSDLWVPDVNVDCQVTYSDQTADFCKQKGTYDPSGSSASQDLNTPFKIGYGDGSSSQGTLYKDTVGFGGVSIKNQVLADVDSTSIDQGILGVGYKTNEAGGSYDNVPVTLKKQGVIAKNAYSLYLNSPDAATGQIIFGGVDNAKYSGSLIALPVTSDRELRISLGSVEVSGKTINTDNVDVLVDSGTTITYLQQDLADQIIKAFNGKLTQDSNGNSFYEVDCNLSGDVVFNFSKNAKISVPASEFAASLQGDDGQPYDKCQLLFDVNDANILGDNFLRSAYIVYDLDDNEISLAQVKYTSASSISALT

On to `COC(=O)[C@H](CC(C)C)N1C[C@H]2O[C@H](C(=O)N3CCCCC3)[C@@H](O2)C1=O` [Cpd 1, (2S)-4-Methyl-2-[(1R,5S,7S)-2-oxo-7-(piperidine-1-carbonyl)-6,8-dioxa-3-aza-bicyclo[3.2.1]oct-3-yl]-pentanoic acid methyl ester], for which the “1% percent of inhibition with respect to pepstatin at the same concentration” value (shortened to “1% percent of inhibition”) at SAP2 was found to be 37%.
Same read-out and setting: to `COC(=O)[C@H](CC(C)C)N1C[C@H]2O[C@H](C(=O)N3CCOCC3)[C@@H](O2)C1=O` [Cpd 2, 4′-Methyl-(2′S)-2′-[(1R,5S,7S)-7-(morpholine-4-carbonyl)-2-oxo-6,8-dioxa-3-aza-bicyclo[3.2.1]oct-3-yl]-pentanoic acid methyl ester] belongs 32%; to `CCCCNC(=O)CC(O)CNC(=O)[C@H](CC(C)C)N1C[C@H]2O[C@H](C(=O)N3CCCCC3)[C@@H](O2)C1=O` (stereo partly drawn) [Cpd 3, (2S)-4-Methyl-2-[(1R,5S,7S)-2-oxo-7-(piperidine-1-carbonyl)-6,8-dioxa-3-aza-bicyclo[3.2.1]oct-3-yl]-pentanoic acid (3-butylcarbamoyl-2-hydroxy-propyl)-amide], 22%; to `O=C(NCCO)C1OC2CN(Cc3ccccc3)C(=O)C1O2` (stereo not shown) [Cpd 4], 36%.
Take `CC(C)CC(CO)NC(=O)C1OC2CN(Cc3ccccc3)C(=O)C1O2` (stereo not shown) [Cpd 5]: on SAP2, the “1% percent of inhibition” value was found to be 41%.
Turning to `O=C(C1OC2CN(Cc3ccccc3)C(=O)C1O2)N1CCCCC1` (stereo not shown) [Cpd 6], the “1% percent of inhibition” value on SAP2 turned out to be 42%. In addition, the “differences between treated and untreated control” value is reported as “statistically significant” in the experiment with C. albicans AIDS68 (AIDS68, starting day 1, P<0.01, Mann-withney U test) and “statistically significant” with C. albicans SA40 (SA40, starting day 1, P<0.01, Mann-withney U test). Further, the “Candida AIDS68 cells in vaginal fluid (CFU/ml)” value (shortened to “Candida AIDS68 cells”) in the experiment with C. albicans AIDS68 (day 0) is >100 ± 0 ×1000; with C. albicans AIDS68 (day 1), 71.8 ± 1.3 ×1000; with C. albicans AIDS68 (day 2) it was 62.6 ± 1.5 ×1000; in the experiment with C. albicans AIDS68 (day 5), 40.6 ± 1.4 ×1000; in the experiment with C. albicans AIDS68 (day 7), 23.2 ± 1.4 ×1000; with C. albicans AIDS68 (day 14) it was 12.8 ± 1.2 ×1000. Besides, the entries for the “Candida AIDS68 cells” value in the experiment with C. albicans AIDS68 (day 21) and in the experiment with C. albicans AIDS68 (day 28) were 3.4 ± 1.7 ×1000 and 0 ± 0 ×1000, respectively. Besides, the “Candida SA40 cells in vaginal fluid (CFU/ml)” value (“Candida SA40 cells” for short) was >100 ×1000 with C. albicans SA40 (day 0); 70 ± 1.3 ×1000 in the experiment on C. albicans SA40 (day 1); 57.6 ± 1.4 ×1000 in the experiment on C. albicans SA40 (day 2); 39.2 ± 3 ×1000 in the experiment on C. albicans SA40 (day 5); 30.6 ± 1.8 ×1000 in the experiment on C. albicans SA40 (day 7); 14.4 ± 1.6 ×1000 in the experiment on C. albicans SA40 (day 14). In addition, the “Candida SA40 cells” value in the experiment on C. albicans SA40 (day 21) is 8 ± 1.5 ×1000; in the experiment with C. albicans SA40 (day 28), 1.2 ± 0.7 ×1000.
`O=C(C1OC2CN(Cc3ccccc3)C(=O)C1O2)N1CCN(CCO)CC1` (stereo not shown) [Cpd 7]: the “1% percent of inhibition” value at SAP2 came to 34%.
Same read-out and setting: to `O=C(C1OC2CN(Cc3ccccc3)C(=O)C1O2)N1CCOCC1` (stereo not shown) [Cpd 8] belongs 31%; to `CCOC(=O)N1CCN(C(=O)C2OC3CN(Cc4ccccc4)C(=O)C2O3)CC1` (stereo not shown) [Cpd 9], 37%.
On the same count and under the same terms, to `O=C(NCCCO)C1OC2CN(Cc3ccccc3)C(=O)C1O2` (stereo not shown) [Cpd 10] belongs 12%.
Still for that read-out and setting: to `O=C(NC(CO)c1ccccc1)C1OC2CN(Cc3ccccc3)C(=O)C1O2` (stereo not shown) [Cpd 13] belongs 16%; to `O=C(NC(CO)Cc1ccccc1)C1OC2CN(Cc3ccccc3)C(=O)C1O2` (stereo not shown) [Cpd 14], 19%.
With `O=C(NC(CO)Cc1ccccc1)C1OC2CN(Cc3ccccc3)C(=O)C1O2` (stereo not shown) [Cpd 15], on SAP2, the “1% percent of inhibition” value turned out to be 15%.
For `CCCCNC(=O)C1OC2OC1C(=O)N(Cc1ccccc1)C2Cc1ccccc1` (stereo not shown) [Cpd 16], at SAP2, the “1% percent of inhibition” value came to 17%.
The same measure, in the same setting: next, `CCCCCCNC(=O)C1OC2OC1C(=O)N(Cc1ccccc1)C2Cc1ccccc1` (stereo not shown) [Cpd 17]: 21%; `O=C(NCC(F)(F)F)C1OC2OC1C(=O)N(Cc1ccccc1)C2Cc1ccccc1` (stereo not shown) [Cpd 18]: 17%.
On the same count and under the same terms, to `O=C(C1OC2OC1C(=O)N(Cc1ccccc1)C2Cc1ccccc1)N1CCOCC1` (stereo not shown) [Cpd 19] belongs 25%; to `O=C(C1OC2OC1C(=O)N(Cc1ccccc1)C2Cc1ccccc1)N1CCSCC1` (stereo not shown) [Cpd 20], 28%.
Still for that read-out and setting: to `O=C(C1OC2OC1C(=O)N(Cc1ccccc1)C2Cc1ccccc1)N1CCN(CCO)CC1` (stereo not shown) [Cpd 21] belongs 31%.
As for `OC(Cn1cncn1)(Cn1cncn1)c1ccc(F)cc1F` [fluconazole], the “Candida AIDS68 cells” value in the experiment on C. albicans AIDS68 (day 0) is listed as >100 ± 0 ×1000; with C. albicans AIDS68 (day 1) it was 100 ± 0 ×1000; with C. albicans AIDS68 (day 2), 93 ± 4.3 ×1000; in the experiment with C. albicans AIDS68 (day 5), 61 ± 2.5 ×1000; in the experiment on C. albicans AIDS68 (day 7), 44 ± 2.9 ×1000; in the experiment on C. albicans AIDS68 (day 14), 18.7 ± 3.8 ×1000. Moreover, the “Candida AIDS68 cells” value is 11.7 ± 0.7 ×1000 in the experiment on C. albicans AIDS68 (day 21) and 0 ± 0 ×1000 with C. albicans AIDS68 (day 28).
On to `CC(C)CC(=O)N[C@H](C(=O)N[C@H](C(=O)N[C@@H](CC(C)C)[C@@H](O)CC(=O)N[C@@H](C)C(=O)N[C@@H](CC(C)C)[C@@H](O)CC(=O)O)C(C)C)C(C)C` [pepstatin, reference compound] (Isovaleryl-VV[Sta]A[Sta]-OH), for which the “Candida AIDS68 cells” value in the experiment on C. albicans AIDS68 (day 0) was >100 ± 0 ×1000; in the experiment with C. albicans AIDS68 (day 1), 58.4 ± 1.0 ×1000; in the experiment with C. albicans AIDS68 (day 2) it was 52.0 ± 1.3 ×1000; in the experiment on C. albicans AIDS68 (day 5) it was 37.2 ± 1.6 ×1000; in the experiment with C. albicans AIDS68 (day 7), 30.0 ± 1.2 ×1000; with C. albicans AIDS68 (day 14) it was 19.8 ± 0.8 ×1000. The “Candida AIDS68 cells” value in the experiment on C. albicans AIDS68 (day 21) is 3.8 ± 1.9 ×1000; in the experiment on C. albicans AIDS68 (day 28), 0 ± 0 ×1000. In addition, the “Candida SA40 cells” value is >100 ×1000 in the experiment with C. albicans SA40 (day 0); 56.8 ± 2 ×1000 in the experiment with C. albicans SA40 (day 1); 51 ± 1.2 ×1000 in the experiment with C. albicans SA40 (day 2); 32.4 ± 2.5 ×1000 with C. albicans SA40 (day 5); 28 ± 1.5 ×1000 with C. albicans SA40 (day 7); 9.4 ± 1.4 ×1000 in the experiment with C. albicans SA40 (day 14). Moreover, the “Candida SA40 cells” value is 5 ± 1.3 ×1000 in the experiment with C. albicans SA40 (day 21) and 0 ×1000 with C. albicans SA40 (day 28).

These data come from patent US8445484B2, “Bicyclic peptidomimetic inhibitors of aspartyl-proteases for the treatment of infectious diseases” (Istituto Superiore di Sanita', priority 2008, dated 2013).
